Eleven molecules from patent US20220381657A1, “METHOD FOR PREPARING BIOLOGICAL MATERIAL HAVING EXCELLENT LIGHT-TRANSMITTING PROPERTY” (RIKEN, priority 2016, published 2022) can be followed below.

“Also recorded” adds a separate entry of the source.

System in one data set: not given
Experiment: not given
As to conditions: Table 3.
`[O-][n+]1ccccc1` [#1078, Pyridine N- oxide] returned a pH of 6.1.

Molecule `NCc1cccnc1` [#1102, 3-Picolylamine] registered a pH of 11.6.

`Cc1cccc[n+]1[O-]` [#1140, 2-Methyl-pyridine N-oxide] registered a pH of 6.2.

Consider `Cc1cc[n+]([O-])cc1` [#1145, 4- Methylpyridine N-oxide], for which the pH turned out to be 7.3.

Take `CNC(=O)c1cccnc1` [#1283, N-Methyl- nicotinamide]: the pH is 10.7.

`Cc1ccc(C(=O)C(C)CN2CCCCC2)cc1.Cl` (centres unmarked) [#1392, Tolperisone hydrochloride] displayed a pH of 5.2.

The same data set, now with this note: […].
As to `NCCCn1ccnc1` [#0484, 1-(3-aminopropyl)imidazole], the pH was determined as 12.9.

The molecule `NCc1cccnc1` [#1102, 3-Picolylamine] displayed a pH of 11.6.

`CNC(=O)c1cccnc1` [#1283, N-Methyl- nicotinamide] returned a pH of 10.7.

The test system of the next data set is bovine coagulated blood. Put plainly: Decoloring screening: heme eluted from bovine coagulated blood (OD420-OD700). To be noted: decolorization; OD420 calibrated by OD700.
For the molecule `NCCCn1ccnc1` [#0484, 1-(3-aminopropyl)imidazole], the “700 nm calibrated 420 nm Average” value was determined as 4.81.

Take `Cc1cc(=O)n(-c2ccccc2)n1C` [#0640, 2,3-Dimethyl-1-phenyl-5-pyrazolone]: the “700 nm calibrated 420 nm Average” value turned out to be 1.22.

With `NCCCNCCCN` [#0785, 3,3′-Diamino-dipropylamine], the “700 nm calibrated 420 nm Average” value amounted to 2.09.

With `NCc1cccnc1` [#1102, 3-Picolylamine], the “700 nm calibrated 420 nm Average” value is on record as 2.46.

With `CNC(=O)c1cccnc1` [#1283, N-Methyl- nicotinamide], the “700 nm calibrated 420 nm Average” value is listed as 2.98.

Staying with this data set, now noted: decolorization; integrated absorbance 500-700 nm.
In the case of `NCCCn1ccnc1` [#0484, 1-(3-aminopropyl)imidazole], the “integrated value 500-700 nm Average” value is on record as 2.64.

`Cc1cc(=O)n(-c2ccccc2)n1C` [#0640, 2,3-Dimethyl-1-phenyl-5-pyrazolone]: the “integrated value 500-700 nm Average” value amounted to 0.93.

Turning to `NCCCNCCCN` [#0785, 3,3′-Diamino-dipropylamine], the “integrated value 500-700 nm Average” value is 1.48.

Consider `NCc1cccnc1` [#1102, 3-Picolylamine], for which the “integrated value 500-700 nm Average” value amounted to 1.32.

On to `CNC(=O)c1cccnc1` [#1283, N-Methyl- nicotinamide], for which the “integrated value 500-700 nm Average” value worked out at 2.81.

Another data set has as its system Serius.
Experiment: not given
Conditions: not given
For the molecule `Cc1cc(=O)n(-c2ccccc2)n1C` [#0640, 2,3-Dimethyl-1-phenyl-5-pyrazolone], the “Fluorescence quench Average” value came out at 0.84.

As to `NCCCNCCCN` [#0785, 3,3′-Diamino-dipropylamine], the “Fluorescence quench Average” value was found to be 0.62.

The data set is the same for the next values; noted with them: relative fluorescence.
Take `NCCCn1ccnc1` [#0484, 1-(3-aminopropyl)imidazole]: the “Fluorescence quench Average” value was 0.72.

For `NCc1cccnc1` [#1102, 3-Picolylamine], the “Fluorescence quench Average” value turned out to be 0.77.

Regarding `CNC(=O)c1cccnc1` [#1283, N-Methyl- nicotinamide], the “Fluorescence quench Average” value came out at 0.71.

For a further data set, the target named is EGFP (Aequorea victoria, UniProt P42212, F64L/H231L/S65T).
Experiment: not given
To be noted: Table 3. The class given is biochemical. The protocol: (FIG. 7). […] A mouse hemisphere was treated with use of each 10 wt % chemical solution at 37° C. for 3 days, and was washed with PBS. Subsequently, the mouse hemisphere was subjected to refractive index adjustment with CUBIC-2A.
`Cc1cc(=O)n(-c2ccccc2)n1C` [#0640, 2,3-Dimethyl-1-phenyl-5-pyrazolone]: the “2nd quenching assay EGFP fluorescence” value is on record as “quench free”.

Consider `CN(C)C(=O)Oc1cccc([N+](C)(C)C)c1` [#0864, Neostigmine bromide], for which the “2nd quenching assay EGFP fluorescence” value was “quench free”.

Consider `CNC(=O)c1cccnc1` [#1283, N-Methyl- nicotinamide], for which the “2nd quenching assay EGFP fluorescence” value was “quench free”.

The data set is the same for the next values; noted with them: stated in the description.
With `NCCCn1ccnc1` [#0484, 1-(3-aminopropyl)imidazole], the “retention of fluorescence of a fluorescent protein” value (“retention” below) is listed as “allows fluorescence of a fluorescent protein to be retained”.

Turning to `Cc1cc(=O)n(-c2ccccc2)n1C` [#0640, 2,3-Dimethyl-1-phenyl-5-pyrazolone], the “retention” value is listed as “allowing retention of fluorescence of a fluorescent protein”.

As to `CN(C)C(=O)Oc1cccc([N+](C)(C)C)c1` [#0864, Neostigmine bromide], the “retention” value is on record as “allowing retention of fluorescence of a fluorescent protein”.

Take `CNC(=O)c1cccnc1` [#1283, N-Methyl- nicotinamide]: the “retention” value is on record as “allowing retention of fluorescence of a fluorescent protein; also recorded: allows fluorescence of a fluorescent protein to be retained”.

System in another data set: not listed separately
The experiment in a line: Refractive index of high-concentration aqueous solution. The class given is physicochemical.
Conditions: not given
From the text:
The refractive index of an aqueous solution is commonly known to increase in a solute concentration-dependent manner, and the refractive index of a reagent per unit weight of the reagent varies among individual reagents. Accordingly, two properties are required in order to prepare a high refractive index aqueous solution: (1) an extremely high water-solubility and (2) a […] which allows achieving a high refractive index in a low-concentration aqueous solution.
Take `Cc1cc(=O)n(-c2ccccc2)n1C` [#0640, 2,3-Dimethyl-1-phenyl-5-pyrazolone]: the RI is listed as 1.4966.

The data set is the same for the next values; noted with them: Table 3; chemical conc. 60 wt %.
`[O-][n+]1ccccc1` [#1078, Pyridine N- oxide] registered an RI of 1.4795.

The same data set, now with this note: Table 3; chemical conc. 70 wt %.
For the molecule `CN(C)C(=O)Oc1cccc([N+](C)(C)C)c1` [#0864, Neostigmine bromide], the RI is on record as 1.4830.

`NCc1cccnc1` [#1102, 3-Picolylamine] registered an RI of 1.4895.

As for `Cc1cccc[n+]1[O-]` [#1140, 2-Methyl-pyridine N-oxide], the RI was found to be 1.4919.

Molecule `Cc1cc[n+]([O-])cc1` [#1145, 4- Methylpyridine N-oxide] registered an RI of 1.5073.

Molecule `CNC(=O)c1cccnc1` [#1283, N-Methyl- nicotinamide] came in with an RI of 1.4902.

`Cc1ccc(C(=O)C(C)CN2CCCCC2)cc1.Cl` (centres unmarked) [#1392, Tolperisone hydrochloride] returned an RI of 1.4939.

Still in this data set, the particulars now being: Table 3; chemical conc. 100 wt %.
In the case of `NCCCNCCCN` [#0785, 3,3′-Diamino-dipropylamine], the RI amounted to 1.4895.

System in a further data set: not given
Experiment: not given
As to conditions: OD at 400 nm of the chemical.
As for `NCCCn1ccnc1` [#0484, 1-(3-aminopropyl)imidazole], the 400 nm is 0.05.

With `NCc1cccnc1` [#1102, 3-Picolylamine], the 400 nm amounted to 0.056.

In the case of `CNC(=O)c1cccnc1` [#1283, N-Methyl- nicotinamide], the 400 nm came to 0.063.

Staying with this data set, now noted: Table 3.
The molecule `[O-][n+]1ccccc1` [#1078, Pyridine N- oxide] displayed an OD400 of 0.054.

Consider `NCc1cccnc1` [#1102, 3-Picolylamine], for which the OD400 was found to be 0.056.

The molecule `Cc1cccc[n+]1[O-]` [#1140, 2-Methyl-pyridine N-oxide] gave an OD400 of 0.049.

In turn, `Cc1cc[n+]([O-])cc1` [#1145, 4- Methylpyridine N-oxide] returned an OD400 of 0.059.

The molecule `CNC(=O)c1cccnc1` [#1283, N-Methyl- nicotinamide] came in with an OD400 of 0.063.

The molecule `Cc1ccc(C(=O)C(C)CN2CCCCC2)cc1.Cl` (centres unmarked) [#1392, Tolperisone hydrochloride] registered an OD400 of 0.056.

In the next data set the test system is mouse spleen. Put plainly: Decoloring of mouse spleen (OD420 of supernatant, transmissive image). To be noted: 10 wt % solution, 37° C. overnight.
Consider `Cn1ccnc1` [1-methylimidazole], for which the “mouse spleen decoloring activity” value is on record as “equivalent decoloring activity”.
